Data reported in PubChem BioAssay (NCI).
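Grown in 96-well plates, cells were treated for 48 hours with each compound at five concentrations. Insufficient inhibition: endpoint recorded as highest concentration tested. GI50 = concentration required for 50% inhibition of growth. Definition used: TGI = concentration required for complete inhibition of growth.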

Legend:
Test in all cases: NCI anticancer screen, dose series, 48 h
[1] = tested on: ACHN renal
[2] = tested on: MOLT-4 leukemia
[3] = tested on: MDA-MB-435
[4] = tested on: EKVX NSCLC
[5] = tested on: SF-539 CNS
[6] = tested on: KM12 colon
[7] = tested on: MDA-MB-231 breast
[8] = tested on: NCI-H460 lung
[9] = tested on: TK-10 renal
[10] = tested on: SR leukemia

Row | Structure (SMILES) | GI50 [1] | TGI [1] | GI50 [2] | TGI [2] | GI50 [3] | TGI [3] | GI50 [4] | TGI [4] | GI50 [5] | TGI [5] | GI50 [6] | TGI [6] | GI50 [7] | TGI [7] | GI50 [8] | TGI [8] | GI50 [9] | TGI [9] | TGI [10] | GI50 [10]
1 | CC(C)c1nc(CN(C)C(=O)N[C@H](C(=O)N[C@@H](Cc2ccccc2)C[C@H](O)[C@H](Cc2ccccc2)NC(=O)OCc2cncs2)C(C)C)cs1 | 29.1 µM | 82.3 µM | 7.54 µM | 27.5 µM | 20.1 µM | 57.4 µM | 4.11 µM | > 100 µM | 2.33 µM | 49.4 µM | 23.1 µM | 56.7 µM | 18 µM | 35.1 µM | 17.5 µM | 55.7 µM | 36.6 µM | > 92.6 µM |  | 
2 | COc1cc([N+](=O)[O-])cc2c3c(n(C)c12)[C@@]1(C)CCC2c4ccc(OCc5ccccc5)cc4CCC2C1C3 (stereo partly specified) | > 100 µM | > 100 µM | > 100 µM | > 100 µM | > 100 µM | > 100 µM | 68.5 µM | > 100 µM | 66.7 µM | > 100 µM | > 100 µM | > 100 µM | 62.6 µM | > 100 µM | 90.1 µM | > 100 µM | 86 µM | > 100 µM |  | 
3 | O=C(c1ccccc1)c1nnc(C(=O)c2ccccc2)nn1 |  | > 344 µM |  | > 344 µM |  |  |  | > 344 µM |  | > 344 µM |  | > 344 µM |  |  |  | > 344 µM |  | > 344 µM | 128 µM | 
4 | C/C(CC(=O)Nc1cc(Cl)c(Cl)cc1Cl)=N\NC(N)=O |  |  |  | > 100 µM |  |  |  | > 100 µM |  | > 100 µM |  | > 100 µM |  |  |  |  |  | > 100 µM |  | 
5 | N#Cc1cc([N+](=O)[O-])ccc1NC(=O)C(=O)Nc1n[nH]c(N)n1 |  | > 100 µM |  | > 100 µM |  |  |  | > 100 µM |  | > 100 µM |  | > 100 µM |  |  |  | > 100 µM |  | > 100 µM |  | 
6 | CC(C)(C)C1C=C(Sc2ccccc2)C(=O)O1 (stereo unspecified) |  | > 100 µM |  | > 100 µM |  |  |  | > 100 µM |  | > 100 µM |  | > 100 µM |  |  |  | > 100 µM |  | > 100 µM |  | 
7 | O=C(/N=N/C(=O)OCc1ccccc1)OCc1ccccc1 |  | > 100 µM |  | > 100 µM |  |  |  | > 100 µM |  | > 100 µM |  | > 100 µM |  |  |  | > 100 µM |  | > 100 µM |  | 
8 | O=C1CCC(=O)N2CCCCN12 |  | > 100 µM |  | > 100 µM |  |  |  | > 100 µM |  | > 100 µM |  | > 100 µM |  |  |  | > 100 µM |  | > 100 µM |  | 
9 | Cc1cc2c(cc1C)[n+](=O)c(C(=O)C/C(=N/NC(=O)CC#N)C(=O)Nc1ccccc1C(F)(F)F)c(C)n2[O-] |  | > 100 µM |  | > 100 µM |  |  |  | > 100 µM |  | > 100 µM |  | > 100 µM |  |  |  | > 100 µM |  | > 100 µM |  | 
10 | O=C1O[C@@H](c2ccc3c(c2)OCO3)C2C(=O)O[C@@H](c3ccc4c(c3)OCO4)C12 (stereo partly specified) |  | > 100 µM |  | > 100 µM |  |  |  | > 100 µM |  | > 100 µM |  | > 100 µM |  |  |  | > 100 µM |  | > 100 µM |  | 
11 | C/C(CC(=O)Nc1ccc(C)cc1C)=N/N=C(N)N |  | > 100 µM |  | > 100 µM |  |  |  | > 100 µM |  | > 100 µM |  | > 100 µM |  |  |  | > 100 µM |  | > 100 µM |  | 
12 | O=C1C2c3[nH]c4ccccc4c3C3CCCCCCC3C2C(=O)N1c1ccccc1 (stereo unspecified) |  | 38.4 µM |  |  |  |  |  | > 100 µM |  | 30.5 µM |  | > 100 µM |  |  |  | 18.6 µM |  | 27 µM | 48.4 µM | 
13 | C=CCCCCCCCCC(=O)[O][Sn]([CH2]CCC)([CH2]CCC)[CH2]CCC | 0.164 µM | 0.31 µM | 0.228 µM | 0.833 µM | 0.153 µM | 0.319 µM | 0.131 µM | 0.32 µM | 0.169 µM | 0.332 µM | 0.145 µM | 0.3 µM | 0.14 µM | 0.304 µM | 0.152 µM | 0.312 µM | 0.165 µM | 0.311 µM |  | 
14 | CCC[CH2][Sn]1([CH2]CCC)[O]Cc2nc(C)ccc2[O]1 | 12 µM | 24.4 µM | 3.04 µM | 10.7 µM |  |  | 4.36 µM | 18.2 µM | 12.1 µM | 24.5 µM | 11.1 µM | 23 µM |  |  | 16 µM | 31.1 µM | 3.97 µM | 14.7 µM | 12.7 µM | 2.95 µM
15 | COc1ccc(/C(COc2c(-c3ccccc3)oc3ccccc3c2=O)=N\O)cc1 | 10.6 µM | 26.3 µM | 22.9 µM | > 50 µM |  |  | 14.2 µM | > 50 µM | 13.5 µM | 27.9 µM | 9.46 µM | 23.4 µM | 18.3 µM | > 50 µM | 12.3 µM | 39.6 µM | 10.2 µM | 26.2 µM |  | 
16 | [Cl-].[Dy+3].[O-]/N=C(\c1ccccc1)c1ccccn1.[O-]/N=C(\c1ccccc1)c1ccccn1.[O-]/N=C(\c1ccccc1)c1ccccn1 | 34.6 µM | > 100 µM | 8.47 µM | 78.7 µM |  |  | 31.2 µM | > 100 µM | 25.5 µM | 64.3 µM | 55.3 µM | > 100 µM |  |  | 28.8 µM | > 100 µM | 46.3 µM | > 100 µM |  | 
17 | Nc1nc(Cl)c2ncn(Cc3ccc(C45CC6CC(CC(C6)C4)C5)c(O)c3)c2n1 | 3.35 µM | 13.9 µM | 1.25 µM | 16.2 µM | 5.14 µM | 23.2 µM | 2.99 µM | 21.8 µM | 11.8 µM | 26.7 µM | 2.49 µM | 15.3 µM | 1.85 µM | 11.4 µM | 4.03 µM | 15.6 µM | 2.2 µM | 8.93 µM |  | 
18 | O=C1CCC2(c3ccc(F)cc3)Nc3cc(Cl)ccc3N12 (stereo unspecified) |  | > 100 µM |  | > 100 µM |  |  |  | > 100 µM |  | > 100 µM |  | > 100 µM |  |  |  |  |  |  | > 100 µM | 
19 | Cn1c2ccccc2c2c(-c3ccccc3)[n+]3ccncc3nc21 | > 100 µM | > 100 µM | > 100 µM | > 100 µM | 94.3 µM | > 100 µM | 51.4 µM | > 100 µM | 48.3 µM | > 100 µM | 74.9 µM | > 100 µM | > 100 µM | > 100 µM | > 100 µM | > 100 µM | > 100 µM | > 100 µM |  | 
20 | COc1ccc(/C=C/CN(C)CCc2ccccc2)cc1OC |  | > 100 µM |  | > 100 µM |  |  |  | > 100 µM |  |  |  | > 100 µM |  |  |  |  |  | > 100 µM |  | 
21 | O=C(O)CNS(=O)(=O)c1ccc(NCc2ccccc2)cc1 |  | > 100 µM |  | > 100 µM |  |  |  | > 100 µM |  | > 100 µM |  |  |  |  |  | > 100 µM |  | > 100 µM |  | 
22 | C[C@]12CC[C@H]3[C@@H](CC=C4C[C@@H](O)CC[C@@]43C)[C@@H]1CC[C@@H]2N(CCO)CCO |  | > 100 µM |  | > 100 µM |  | > 100 µM |  | 78.1 µM |  | > 100 µM |  | > 100 µM |  | > 100 µM |  | > 100 µM |  | > 100 µM |  | 
23 | CSC(C1c2ccccc2N(c2ccc(C)cc2)C2=NC(=O)N(C)C(=O)C21Cl)S(=O)(=O)c1ccc(C)cc1 (stereo unspecified) |  | > 100 µM |  | 32 µM |  |  |  | > 100 µM |  | 34.3 µM |  |  |  |  |  | 64.8 µM |  | > 100 µM |  | 
24 | COc1ccc(/C=C/c2nccc3ccccc23)cc1OC |  | > 10 µM |  | > 10 µM |  | > 10 µM |  | > 10 µM |  | > 10 µM |  | > 10 µM |  | > 10 µM |  | > 10 µM |  | > 10 µM |  | 
25 | CCC[CH2][Sn]([CH2]CCC)([O]C(=O)c1cccnc1SC)[O]C(=O)c1cccnc1SC | 0.878 µM | 2.09 µM | 0.149 µM | 0.929 µM |  |  | 1.04 µM | 2.22 µM | 1.2 µM | 2.49 µM | 1.51 µM | 3.08 µM |  |  | 1.66 µM | 3.47 µM | 0.527 µM | 1.69 µM |  | 
26 | COc1ccc(NC2=CC(=O)C(=O)c3ccccc32)nn1 |  | 5.1 µM |  | 1.76 µM |  | 1.32 µM |  | 9.82 µM |  | 2.2 µM |  | 1.62 µM |  | 34.8 µM |  | 3.49 µM |  | 9.92 µM |  | 
27 | CCOC(=O)[C]1([Bi]([CH3])[CH3])N=NC(C(=O)OC)=C1C(=O)OC (stereo unspecified) | 18 µM | 32.4 µM | 23.3 µM | 63.9 µM |  |  | 18.7 µM | 36.5 µM | 18.1 µM | 32.3 µM | 21.5 µM | 49.2 µM |  |  | > 100 µM | > 100 µM | 17.3 µM | 32.1 µM |  | 
28 | O=c1c2cc([N+](=O)[O-])ccc2sc2ccsc12 |  | > 100 µM |  | > 100 µM |  |  |  | > 100 µM |  | > 100 µM |  | > 100 µM |  |  |  | > 100 µM |  |  |  | 
29 | CCC(C)c1c(Cl)nc(Cl)nc1Cl (stereo unspecified) |  | 11.9 µM |  | > 100 µM |  | 9.1 µM |  | 48.8 µM |  | 58.8 µM |  | 10.6 µM |  |  |  | 34.2 µM |  | 41.3 µM |  | 
30 | OCC(O)CC[CH2][Sn]([Br])([c]1ccccc1)[c]1ccccc1 (stereo unspecified) | > 100 µM | > 100 µM |  |  |  |  | > 100 µM | > 100 µM | > 100 µM | > 100 µM | > 100 µM | > 100 µM |  |  | > 100 µM | > 100 µM | > 100 µM | > 100 µM | > 100 µM | > 100 µM
